{
  "source": "paper PMC10578352",
  "about": "“Identification of a Protein Arginine Methyltransferase 7 (PRMT7)/Protein Arginine Methyltransferase 9 (PRMT9) Inhibitor” (Journal of Medicinal Chemistry, 2023)",
  "assay_type_in_all_cases": "biochemical",
  "key": {"[1]": {"target": "T1, human recombinant PRMT9 (Homo sapiens, UniProt Q6P2P2)", "T1 construct": "human recombinant PRMT9 (2–845; N-terminal FLAG-tag, C-terminal His6-tag); FLAG (N); His6 (C); purchased BPS BioScience 79124", "T1 sequence (Q6P2P2 2-845)": "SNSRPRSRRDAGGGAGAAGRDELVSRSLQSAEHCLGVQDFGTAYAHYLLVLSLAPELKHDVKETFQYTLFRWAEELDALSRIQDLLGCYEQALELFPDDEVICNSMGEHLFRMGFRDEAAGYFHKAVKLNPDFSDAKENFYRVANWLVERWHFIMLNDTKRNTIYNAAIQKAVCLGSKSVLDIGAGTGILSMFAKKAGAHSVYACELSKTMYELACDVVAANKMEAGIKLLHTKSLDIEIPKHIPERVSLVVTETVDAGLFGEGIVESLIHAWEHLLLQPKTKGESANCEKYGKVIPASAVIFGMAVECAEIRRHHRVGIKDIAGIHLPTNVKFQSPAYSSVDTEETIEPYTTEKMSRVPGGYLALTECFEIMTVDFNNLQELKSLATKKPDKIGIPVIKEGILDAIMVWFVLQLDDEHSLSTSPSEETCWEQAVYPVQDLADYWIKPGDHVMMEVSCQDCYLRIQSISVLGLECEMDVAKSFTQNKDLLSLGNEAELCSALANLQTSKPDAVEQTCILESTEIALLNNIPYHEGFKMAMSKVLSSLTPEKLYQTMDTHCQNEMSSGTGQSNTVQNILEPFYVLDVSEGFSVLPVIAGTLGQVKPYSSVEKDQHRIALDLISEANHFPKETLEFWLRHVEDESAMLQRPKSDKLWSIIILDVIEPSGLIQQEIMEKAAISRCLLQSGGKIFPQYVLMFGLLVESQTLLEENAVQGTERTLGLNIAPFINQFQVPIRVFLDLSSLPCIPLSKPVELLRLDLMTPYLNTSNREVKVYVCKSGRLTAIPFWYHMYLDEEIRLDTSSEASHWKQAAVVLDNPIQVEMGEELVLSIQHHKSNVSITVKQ", "test": "AlphaLISA PRMT9 activity assay (modified BPS kit, biotinylated SF3B2 peptide)", "details": "for IC50 / PRMT9 IC50: PRMT9 0.105 μM, biotinylated SF3B2 (500–519) peptide 100 nM, SAM 25 μM; for PRMT9 inhibition (in words): in-house AlphaLISA assay", "experimental": "Accordingly, all the enzymatic inhibition data were obtained by performing the assays in these optimized conditions.\nThe reaction was incubated for 60 min. Afterward, in each well, 5 μL of a 1:100 dilution of Primary antibody 28 (BPS BioScience, #52140Z3) in Detection buffer (BPS BioScience) and 5 μL of anti-Rabbit acceptor beads (PerkinElmer, #AL104C) were added to obtain a final concentration of 20 μg/mL.\nFor each incubation step, the OptiPlate was sealed with a protective foil to prevent evaporation and contamination. Donor and Acceptor beads were added to the mixture in subdued light.\nThe 100% activity (positive control) was reached using vehicle (DMSO), while 0% activity (negative control) was obtained without the protein. Data were analyzed by using Excel and Prism software. Values obtained for each compound are mean ± SD determined for three separate experiments."}, "[2]": {"target": "T2, PRMT1 (Homo sapiens, UniProt Q99873)", "T2 construct": "PRMT1 (residues 2–371, C-terminus); with an N-terminal GST-tag; GST (N); purchased Reaction Biology Corporation", "T2 sequence (Q99873 2-371)": "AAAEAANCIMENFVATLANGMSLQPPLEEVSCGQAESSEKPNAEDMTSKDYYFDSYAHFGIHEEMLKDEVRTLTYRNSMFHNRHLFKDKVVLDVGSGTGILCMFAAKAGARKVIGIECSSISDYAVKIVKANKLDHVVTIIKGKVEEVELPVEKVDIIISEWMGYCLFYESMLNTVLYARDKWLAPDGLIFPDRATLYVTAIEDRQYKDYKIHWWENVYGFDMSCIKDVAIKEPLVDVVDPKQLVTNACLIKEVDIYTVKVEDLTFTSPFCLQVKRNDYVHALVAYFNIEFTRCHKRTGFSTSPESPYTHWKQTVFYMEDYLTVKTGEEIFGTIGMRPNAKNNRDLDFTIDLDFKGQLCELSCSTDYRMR", "test": "HotSpot radioisotope-based filter assay, PRMT1", "details": "Figure 2; from IC50 values of ref 31", "experimental": "(§1) Then, ^3H-SAM (final concentration of 1 μM) was delivered into the reaction mixture to initiate the reaction. After incubation for 60 min at 30 °C, the reaction mixture was delivered to filter-paper for detection (as assessed by scintillation). Data were analyzed using Excel and GraphPad Prism 6.0 software (GraphPad Software Inc., San Diego, CA) for IC50 curve fits using sigmoidal dose vs response - variable slope (four parameters) equations."}, "[3]": {"target": "T3, PRMT3 (Homo sapiens, UniProt O60678)", "T3 construct": "PRMT3 (residues 2–531, C-terminus); with an N-terminal His-tag; His (N); purchased Reaction Biology Corporation", "T3 sequence (O60678 2-531)": "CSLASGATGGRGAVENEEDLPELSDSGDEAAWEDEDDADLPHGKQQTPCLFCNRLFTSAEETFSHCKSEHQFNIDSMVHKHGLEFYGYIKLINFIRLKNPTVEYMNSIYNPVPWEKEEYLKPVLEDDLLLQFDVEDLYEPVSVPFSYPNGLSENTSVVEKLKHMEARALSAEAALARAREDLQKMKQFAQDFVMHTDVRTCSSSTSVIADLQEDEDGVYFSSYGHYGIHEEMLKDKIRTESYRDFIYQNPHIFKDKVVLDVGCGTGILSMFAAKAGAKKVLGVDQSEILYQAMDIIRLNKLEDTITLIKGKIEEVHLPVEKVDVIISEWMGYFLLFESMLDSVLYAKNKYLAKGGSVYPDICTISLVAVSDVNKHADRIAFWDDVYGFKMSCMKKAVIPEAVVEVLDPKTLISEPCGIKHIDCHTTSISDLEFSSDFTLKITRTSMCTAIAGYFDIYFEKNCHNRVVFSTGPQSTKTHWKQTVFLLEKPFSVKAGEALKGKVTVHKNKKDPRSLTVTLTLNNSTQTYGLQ", "test": "HotSpot radioisotope-based filter assay, PRMT3", "details": "Figure 2; from IC50 values of ref 31", "experimental": "as §1"}, "[4]": {"target": "T4, PRMT4 (Homo sapiens, UniProt Q86X55)", "T4 construct": "PRMT4 (residues 2–608, C-terminus); with an N-terminal GST-tag; GST (N); purchased Reaction Biology Corporation", "T4 sequence (Q86X55 2-608)": "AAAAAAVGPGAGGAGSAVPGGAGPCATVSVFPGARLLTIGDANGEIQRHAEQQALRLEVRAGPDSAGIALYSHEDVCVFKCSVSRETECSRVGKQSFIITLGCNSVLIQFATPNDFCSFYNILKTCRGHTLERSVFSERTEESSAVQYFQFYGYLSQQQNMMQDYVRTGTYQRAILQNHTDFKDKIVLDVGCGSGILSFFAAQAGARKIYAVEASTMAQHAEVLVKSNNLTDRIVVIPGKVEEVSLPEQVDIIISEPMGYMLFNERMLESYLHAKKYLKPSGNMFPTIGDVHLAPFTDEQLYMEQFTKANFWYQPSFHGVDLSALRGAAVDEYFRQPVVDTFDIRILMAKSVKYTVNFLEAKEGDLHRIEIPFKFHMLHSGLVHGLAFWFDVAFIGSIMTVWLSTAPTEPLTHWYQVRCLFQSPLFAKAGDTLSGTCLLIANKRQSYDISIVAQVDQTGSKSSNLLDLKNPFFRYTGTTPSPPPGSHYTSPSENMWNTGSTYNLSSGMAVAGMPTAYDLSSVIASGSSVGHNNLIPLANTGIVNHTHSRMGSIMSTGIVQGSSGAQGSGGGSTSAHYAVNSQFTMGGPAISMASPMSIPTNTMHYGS", "test": "HotSpot radioisotope-based filter assay, PRMT4", "details": "Figure 2; from IC50 values of ref 31", "experimental": "as §1"}, "[5]": {"target": "T5, PRMT5/MEP50 complex (Homo sapiens, UniProt O14744)", "T5 construct": "residues PRMT5 2–637, C-terminus, and MEP50 2–342, C-terminus; FLAG (N); purchased Reaction Biology Corporation", "T5 sequence (O14744 2-637)": "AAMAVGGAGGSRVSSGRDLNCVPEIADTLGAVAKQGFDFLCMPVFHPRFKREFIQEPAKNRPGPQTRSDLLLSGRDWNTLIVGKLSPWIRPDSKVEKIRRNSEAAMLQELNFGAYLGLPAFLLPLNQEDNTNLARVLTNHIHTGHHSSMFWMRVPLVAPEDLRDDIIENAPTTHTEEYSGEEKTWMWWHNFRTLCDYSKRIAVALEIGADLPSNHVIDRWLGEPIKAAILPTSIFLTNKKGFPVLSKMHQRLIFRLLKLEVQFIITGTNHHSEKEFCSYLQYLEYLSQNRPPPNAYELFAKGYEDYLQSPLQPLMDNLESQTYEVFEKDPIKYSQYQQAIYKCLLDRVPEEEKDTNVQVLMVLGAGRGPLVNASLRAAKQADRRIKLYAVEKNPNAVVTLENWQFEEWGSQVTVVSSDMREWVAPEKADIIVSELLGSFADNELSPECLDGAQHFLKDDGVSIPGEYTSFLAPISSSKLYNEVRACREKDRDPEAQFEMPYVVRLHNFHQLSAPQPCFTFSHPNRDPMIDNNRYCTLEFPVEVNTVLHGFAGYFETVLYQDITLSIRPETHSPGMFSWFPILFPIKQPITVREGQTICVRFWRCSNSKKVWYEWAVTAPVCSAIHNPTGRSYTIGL", "T5 sequence (Q9BQA1 2-342 partner limits assumed)": "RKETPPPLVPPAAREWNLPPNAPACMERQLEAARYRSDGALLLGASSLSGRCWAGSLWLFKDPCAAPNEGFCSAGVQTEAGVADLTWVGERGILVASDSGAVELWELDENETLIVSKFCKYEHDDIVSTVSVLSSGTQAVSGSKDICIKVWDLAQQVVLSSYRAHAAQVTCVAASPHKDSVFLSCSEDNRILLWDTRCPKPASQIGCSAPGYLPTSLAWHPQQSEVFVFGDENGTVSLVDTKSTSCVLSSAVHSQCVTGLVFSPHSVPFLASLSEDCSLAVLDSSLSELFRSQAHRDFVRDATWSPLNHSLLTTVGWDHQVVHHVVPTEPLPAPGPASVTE", "test": "HotSpot radioisotope-based filter assay, PRMT5", "details": "Figure 2; from IC50 values of ref 31", "experimental": "as §1"}, "[6]": {"target": "T6, PRMT6 (Homo sapiens, UniProt Q96LA8)", "T6 construct": "PRMT6 (residues 2–375, C-terminus); with an N-terminal GST-tag; GST (N); purchased Reaction Biology Corporation", "T6 sequence (Q96LA8 2-375)": "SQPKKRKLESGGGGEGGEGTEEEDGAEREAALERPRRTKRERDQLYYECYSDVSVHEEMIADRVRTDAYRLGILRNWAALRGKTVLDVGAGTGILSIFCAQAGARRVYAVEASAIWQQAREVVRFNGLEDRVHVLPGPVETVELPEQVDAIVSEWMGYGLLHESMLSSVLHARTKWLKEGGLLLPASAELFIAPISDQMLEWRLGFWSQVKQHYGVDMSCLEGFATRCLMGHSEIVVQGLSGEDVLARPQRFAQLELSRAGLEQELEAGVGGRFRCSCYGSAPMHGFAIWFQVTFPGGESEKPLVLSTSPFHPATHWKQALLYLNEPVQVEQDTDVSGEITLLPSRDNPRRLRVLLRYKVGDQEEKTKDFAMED", "test": "HotSpot radioisotope-based filter assay, PRMT6", "details": "Figure 2; from IC50 values of ref 31", "experimental": "as §1"}, "[7]": {"target": "T7, PRMT8 (Homo sapiens, UniProt Q9NR22)", "T7 construct": "(residues 61–394, C-terminus); with C- and N-terminal His-tags; His (N); His (C); purchased Reaction Biology Corporation", "T7 sequence (Q9NR22 61-394)": "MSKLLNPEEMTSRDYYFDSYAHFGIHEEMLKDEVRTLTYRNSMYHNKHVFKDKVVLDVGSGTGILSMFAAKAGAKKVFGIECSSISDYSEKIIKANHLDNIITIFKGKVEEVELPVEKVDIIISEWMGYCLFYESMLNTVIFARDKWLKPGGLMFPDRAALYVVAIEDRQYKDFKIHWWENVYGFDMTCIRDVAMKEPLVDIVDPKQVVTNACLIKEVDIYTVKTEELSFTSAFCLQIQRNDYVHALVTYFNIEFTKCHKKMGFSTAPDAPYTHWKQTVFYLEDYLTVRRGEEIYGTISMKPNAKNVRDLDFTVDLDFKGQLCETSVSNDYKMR", "test": "HotSpot radioisotope-based filter assay, PRMT8", "details": "Figure 2; from IC50 values of ref 31", "experimental": "as §1"}},
  "note": "“Also recorded” adds a separate entry of the source.",
  "data": [
    {"smiles": "COC(=O)c1cc(O)c2cc(NC(=O)NCCCCCCNC(=N)NC[C@H]3O[C@@H](n4cnc5c(N)ncnc54)[C@H](O)[C@@H]3O)ccc2c1", "note": "[1d]", "values": [
      {"measurement": "IC50", "setting": "[1]", "value": 1020, "unit": "nM"}
    ]},
    {"smiles": "COC(=O)c1cc(O)c2cc(NC(=O)NCCCCCCCNC(=N)NC[C@H]3O[C@@H](n4cnc5c(N)ncnc54)[C@H](O)[C@@H]3O)ccc2c1", "note": "[1e]", "values": [
      {"measurement": "IC50", "setting": "[1]", "value": 1300, "unit": "nM"},
      {"measurement": "selectivity index for PRMT7 over PRMT1", "setting": "[2]", "value": 4, "unit": "fold"},
      {"measurement": "selectivity index for PRMT7 over PRMT3", "setting": "[3]", "value": 20, "unit": "fold"},
      {"measurement": "selectivity index for PRMT7 over PRMT4", "setting": "[4]", "value": 0.28, "unit": "fold"},
      {"measurement": "selectivity index for PRMT7 over PRMT5", "setting": "[5]", "value": 5, "unit": "fold"},
      {"measurement": "selectivity index for PRMT7 over PRMT6", "setting": "[6]", "value": 56, "unit": "fold"},
      {"measurement": "selectivity index for PRMT7 over PRMT8", "setting": "[7]", "value": 9, "unit": "fold"}
    ]},
    {"smiles": "COC(=O)c1cc(O)c2cc(NC(=O)NCCCCNC(=N)NCC[C@H]3O[C@@H](n4cnc5c(N)ncnc54)[C@H](O)[C@@H]3O)ccc2c1", "note": "[1f]", "values": [
      {"measurement": "IC50", "setting": "[1]", "value": 1200, "unit": "nM"},
      {"measurement": "selectivity index for PRMT7 over PRMT1", "setting": "[2]", "value": 22, "unit": "fold"},
      {"measurement": "selectivity index for PRMT7 over PRMT3", "setting": "[3]", "value": 46, "unit": "fold"},
      {"measurement": "selectivity index for PRMT7 over PRMT4", "setting": "[4]", "value": 0.04, "unit": "fold"},
      {"measurement": "selectivity index for PRMT7 over PRMT5", "setting": "[5]", "value": 0.51, "unit": "fold"},
      {"measurement": "selectivity index for PRMT7 over PRMT6", "setting": "[6]", "value": 100, "unit": "fold"},
      {"measurement": "selectivity index for PRMT7 over PRMT8", "setting": "[7]", "value": 27, "unit": "fold"}
    ]},
    {"smiles": "COC(=O)c1cc(O)c2cc(NC(=O)NCCCCNC(=N)NCCC[C@H]3O[C@@H](n4cnc5c(N)ncnc54)[C@H](O)[C@@H]3O)ccc2c1", "note": "[1g]", "values": [
      {"measurement": "IC50", "setting": "[1]", "value": "> 10000", "unit": "nM"},
      {"measurement": "selectivity index for PRMT7 over PRMT1", "setting": "[2]", "value": 0.38, "unit": "fold"},
      {"measurement": "selectivity index for PRMT7 over PRMT3", "setting": "[3]", "value": 3, "unit": "fold"},
      {"measurement": "selectivity index for PRMT7 over PRMT4", "setting": "[4]", "value": 0.002, "unit": "fold"},
      {"measurement": "selectivity index for PRMT7 over PRMT5", "setting": "[5]", "value": 0.17, "unit": "fold"},
      {"measurement": "selectivity index for PRMT7 over PRMT6", "setting": "[6]", "value": 0.93, "unit": "fold"},
      {"measurement": "selectivity index for PRMT7 over PRMT8", "setting": "[7]", "value": 0.3, "unit": "fold"}
    ]},
    {"smiles": "CCOC(=O)c1cc2cc(NC(=O)CNC(=O)Nc3ccc([N+](=O)[O-])cc3)ccc2[nH]1", "note": "[EML105]", "values": [
      {"measurement": "PRMT9 IC50", "setting": "[1]", "value": "no inhibition"},
      {"measurement": "PRMT9 inhibition (in words)", "setting": "[1]", "value": "no PRMT9 inhibition; also recorded: no activity"}
    ]},
    {"smiles": "COC(=O)c1cc(O)c2cc(NC(=O)Nc3ccc4cc(C(=O)OC)cc(O)c4c3)ccc2c1", "note": "[EML107]", "values": [
      {"measurement": "PRMT9 IC50", "setting": "[1]", "value": "no inhibition"},
      {"measurement": "PRMT9 inhibition (in words)", "setting": "[1]", "value": "no PRMT9 inhibition; also recorded: no activity"}
    ]},
    {"smiles": "O=C(Nc1ccc2cc(C(=O)O)cc(O)c2c1)Nc1ccc2cc(C(=O)O)cc(O)c2c1", "note": "[EML108]", "values": [
      {"measurement": "PRMT9 IC50", "setting": "[1]", "value": "no inhibition"},
      {"measurement": "PRMT9 inhibition (in words)", "setting": "[1]", "value": "no PRMT9 inhibition; also recorded: no activity"}
    ]},
    {"smiles": "O=C(Nc1ccc2[nH]cc(C(=O)O)c2c1)Nc1ccc2[nH]cc(C(=O)O)c2c1", "note": "[EML145]", "values": [
      {"measurement": "PRMT9 IC50", "setting": "[1]", "value": "no inhibition"},
      {"measurement": "PRMT9 inhibition (in words)", "setting": "[1]", "value": "no PRMT9 inhibition; also recorded: no activity"}
    ]},
    {"smiles": "COC(=O)c1c[nH]c2ccc(NC(=O)CC(=O)Nc3ccc4[nH]cc(C(=O)OC)c4c3)cc12", "note": "[EML147]", "values": [
      {"measurement": "PRMT9 IC50", "setting": "[1]", "value": "no inhibition"},
      {"measurement": "PRMT9 inhibition (in words)", "setting": "[1]", "value": "no PRMT9 inhibition; also recorded: no activity"}
    ]},
    {"smiles": "O=C(CC(=O)Nc1ccc2[nH]cc(C(=O)O)c2c1)Nc1ccc2[nH]cc(C(=O)O)c2c1", "note": "[EML148]", "values": [
      {"measurement": "PRMT9 IC50", "setting": "[1]", "value": "no inhibition"},
      {"measurement": "PRMT9 inhibition (in words)", "setting": "[1]", "value": "no PRMT9 inhibition; also recorded: no activity"}
    ]}
  ]
}
